# Several values for one entry are separate records, joined by “and”; a condition that tells them apart may be missing. Equal values may be shown once.
# Tested on: 885512-296-R-J2-PDC complex spheroid viability
# Experiment: Anticancer human tumor 885512-296-R-J2-PDC patient-derived breast carcinoma cell line growth inhibition
# Conditions: for viability, T/C: stronger effect = lower value
# Procedure, shortened: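 Complex spheroids of tumor cells with HUVEC and human MSCs, exposed to iadademstat combined with other agents. Each agent tested in half-log steps from near clinical Cmax (else 10 microM top), DMSO ≤0.25%.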
# [1] = curve of first compound, second compound 0.1 µM
# [2] = curve of first compound, second compound 0.316 µM
# [3] = curve of first compound, second compound 1 µM
# [4] = curve of first compound, second compound 3.16 µM
# [5] = curve of first compound, second compound 10 µM
# [6] = second compound 0.1 µM, first compound 0.00316 µM
# [7] = second compound 0.1 µM, first compound 0.01 µM
# [8] = second compound 0.1 µM, first compound 0.0316 µM
# [9] = second compound 0.1 µM, first compound 0.1 µM
# [10] = second compound 0.1 µM, first compound 0.316 µM
# [11] = second compound 0.1 µM, first compound 1 µM
# [12] = second compound 0.316 µM, first compound 0.00316 µM
# [13] = second compound 0.316 µM, first compound 0.01 µM
# [14] = second compound 0.316 µM, first compound 0.0316 µM
# [15] = second compound 0.316 µM, first compound 0.1 µM
# [16] = second compound 0.316 µM, first compound 0.316 µM
# [17] = second compound 0.316 µM, first compound 1 µM
# [18] = second compound 1 µM, first compound 0.00316 µM
# [19] = second compound 1 µM, first compound 0.01 µM
# [20] = second compound 1 µM, first compound 0.0316 µM
# [21] = second compound 1 µM, first compound 0.1 µM
# [22] = second compound 1 µM, first compound 0.316 µM
# [23] = second compound 1 µM, first compound 1 µM
# [24] = second compound 3.16 µM, first compound 0.00316 µM
# [25] = second compound 3.16 µM, first compound 0.01 µM
# [26] = second compound 3.16 µM, first compound 0.0316 µM
# [27] = second compound 3.16 µM, first compound 0.1 µM
# [28] = second compound 3.16 µM, first compound 0.316 µM
# [29] = second compound 3.16 µM, first compound 1 µM
# [30] = second compound 10 µM, first compound 0.00316 µM
# [31] = second compound 10 µM, first compound 0.01 µM
# [32] = second compound 10 µM, first compound 0.0316 µM
# [33] = second compound 10 µM, first compound 0.1 µM
# [34] = second compound 10 µM, first compound 0.316 µM
# [35] = second compound 10 µM, first compound 1 µM
# 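Further: spheroids exposed to agents for 7 days before viability read.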
Structure (SMILES),IC50 [1] [nM],IC50 [2] [nM],IC50 [3] [nM],IC50 [4] [nM],IC50 [5] [nM],"viability, T/C [6] [%]","viability, T/C [7] [%]","viability, T/C [8] [%]","viability, T/C [9] [%]","viability, T/C [10] [%]","viability, T/C [11] [%]","viability, T/C [12] [%]","viability, T/C [13] [%]","viability, T/C [14] [%]","viability, T/C [15] [%]","viability, T/C [16] [%]","viability, T/C [17] [%]","viability, T/C [18] [%]","viability, T/C [19] [%]","viability, T/C [20] [%]",further results
Nc1ncn(C2CC(O)C(CO)O2)c(=O)n1 (configuration not stated) + NC1CCC(NC2CC2c2ccccc2)CC1,30.8,29.9,28.3,27.1,19.8,91.3,91.5,46.9,25.2,12.7,13.6,105,75.5,53,24.6,14.8,15.4,101,74.1,47,"viability, T/C [21]: 30.8%; viability, T/C [22]: 14.5%; viability, T/C [23]: 16.1%; viability, T/C [24]: 80.1%; viability, T/C [25]: 72.6%; viability, T/C [26]: 44.4%; viability, T/C [27]: 28.9%; viability, T/C [28]: 19.8%; viability, T/C [29]: 16.1%; viability, T/C [30]: 74.8%; viability, T/C [31]: 59%; viability, T/C [32]: 45.4%; viability, T/C [33]: 21.4%; viability, T/C [34]: 15.6%; viability, T/C [35]: 11.5%"
Nc1ccn(C2OC(CO)C(O)C2(F)F)c(=O)n1 (configuration not stated),–,–,–,–,–,–,–,–,–,–,–,–,–,–,–,–,–,–,–,–,"viability, T/C (compound 0.000949 µM): 5.28% and 20.8%; viability, T/C (compound 0.003 µM): 8.05% and 3%; viability, T/C (compound 0.00949 µM): 5.82% and 2.16%; viability, T/C (compound 0.03 µM): 8.91% and 2.45%; viability, T/C (compound 0.0949 µM): 10.2% and 2.79%; viability, T/C (compound 0.3 µM): 8.07% and 3.31%; IC50 (curve of compound): < 0.949 nM"
CC1COCCN1c1cc(-c2ccnn2C)c2ccnc(-c3ccn[nH]3)c2n1 (configuration not stated) + NC1CCC(NC2CC2c2ccccc2)CC1,< 3.16,< 3.16,< 3.16,< 3.16,< 3.16,42,8.7,9.16,5.02,7.43,11.5,42,10.9,4.73,4.6,6.77,5.15,38.8,10.6,5.72,"viability, T/C [21]: 5.22%; viability, T/C [22]: 4.61%; viability, T/C [23]: 8.49%; viability, T/C [24]: 38.8%; viability, T/C [25]: 7.56%; viability, T/C [26]: 3.3%; viability, T/C [27]: 6.46%; viability, T/C [28]: 4.63%; viability, T/C [29]: 4.98%; viability, T/C [30]: 23.8%; viability, T/C [31]: 5.72%; viability, T/C [32]: 3.24%; viability, T/C [33]: 2.51%; viability, T/C [34]: 2.18%; viability, T/C [35]: 2.8%"

# — PubChem BioAssay AID1918946 (Molecular Pharmacology Branch, DTP, NCI, 2023)
